Experimental data from patent US20210251228A1, “METHODS FOR REPELLING DROSOPHILA SPECIES USING 2-PENTYLFURAN” (The United States of America, as represented by the …, priority 2020, published 2021).
Where a name gives a salt, the structure may show the parent alone.

Tested on: Drosophila suzukii antennae
Test: Coupled GC-EAD of bread dough headspace volatiles on SWD antennae
Conditions: adult female SWD antennae; adsorbent extract of bread dough; authentic standards 10 ng/μl
Method: Adsorbent Sampling from Bread Dough: The bread dough bait consisted of whole-wheat flour (17.25 g), sugar (2 g), dry active bread yeast (0.325 g), apple cider vinegar (1 ml), and water (25 ml) (Cha, D. H., et al., J. Econ. Entomol., 111: 645-652 (2018a)). Headspace volatiles were collected from 10 g bread dough ball placed in a screened specimen cup (130 ml) by using 2.41 closed volatile collection chambers (ARS, Inc., Gainesville, Fla.) with one air inlet adapter (7 mm ID) on the top and an outlet adapter (7 mm ID) on the bottom wall. Clean air from a filtering and delivery system (ARS Inc., Gainesville, Fla.) was pushed into the chamber at 0.7 L/min through the top inlet port, and volatiles from the dough were pushed out through volatile traps (activated charcoal adsorbent filters, ORBO™32-small, Supelco Inc., Bellefonte, Pa.) on the bottom of the chamber. An additional ORBO™ filter was used to ensure that no breakthrough occurred. For each sample of dough (2 dough samples total), adsorbent collections were made over a 2-day period at room temperature using the same volatile trap. Volatiles were eluted with 600 μl methylene chloride every 24 h from the filters of a given dough sample and combined across the total of the collecting days (from 2 dough samples). The combined extract was kept at −20° C. and subjected to as chromatography-electroantennographic detection (GC-EAD) and gas chromatography-mass spectrometry (GC-MS) analyses.
Coupled Gas Chromatographic-Electroantennographic Detection (GC-EAD): Coupled GC-EAD analysis was performed as described previously (Cha, D. H., J. Chem. Ecol., 34: 1180-1189 (2008); Cha, D. H., et al., J. Chem. Ecol., 38: 1419-1431 (2012)) using a Hewlett Packard 5890 Series II gas chromatograph equipped with either a non-polar DB-5 ms capillary column (30 m×0.25 mm ID, 0.25 μm film thickness; Agilent Technologies, Wilmington, Del.) or polar DB-WAXetr capillary column (30 m×0.25 mm ID, 0.25 μm film thickness; Agilent Technologies, Wilmington, Del.) in the splitless mode with 1 min sampling time. The oven temperature was programmed at 40° C. for 5 min, then increased by 15° C./min to 250° C., and held for 5 min. Injector and detector temperatures were set at 250° C. Nitrogen gas was the carrier at a flow of 2 ml/min. The column effluent was split 1:1 in the oven via a “Y” glass splitter (Supelco). One arm of the splitter led to the flame ionization detector (FID) (250° C.) and the other to the heated EAD port (250° C.). Whole head preparations were made of individual flies, age 5-9 day, for GC-EAD analysis (Cha et al. 2012). The head was separated from the body and its antennae positioned between two gold wire electrodes immersed in saline filled (Drosophila ringer solution; 46 mmol NaCl, 182 mmol KCl, 3 mmol CaCl2, and 10 mmol Tris HCl at pH 7.2) micropipettes in an acrylic holder. The antennal holder was placed inside a humidified condenser and maintained at 5° C. The output signal from the antenna was amplified by a customized high input impedance DC amplifier and recorded on an HP 3390A integrator.
Chemical Analysis: GC-MS was carried out with an Agilent 5975MS coupled with a Agilent 6890GC equipped with either a DB-5 ms capillary column (30 m×0.25 mm ID, 0.25 μm film thickness; Agilent Technologies, Wilmington, Del.) or DB-WAXetr capillary column (30 m×0.25 mm ID, 0.25 μm film thickness; Agilent Technologies, Wilmington, Del.). Helium was the carrier gas (1.0 ml/min constant flow). The GC temperature program was the same as used for the GC-EAD analyses. The MS transfer-line was held at 260° C., the MS source at 230° C., and the MS quad at 150° C. Mass spectra were taken in EI mode (at 70 eV) in the range from 40 m/z to 350 m/z with a scanning rate of 4.58 scan/s. GC-MS data were processed with the MDS-Chemstation software (Agilent Technologies). […]
In the case of CCCCCCCO [1-heptanol], the “GC-EAD activity (antennal response)” value is reported as “active”.
In the case of CCCCCCO [1-hexanol], the “GC-EAD activity (antennal response)” value is reported as “active”.
For C=CC(O)CCCCC (stereo not drawn) [1-octen-3-ol, reference compound], the “GC-EAD activity (antennal response)” value was “active”.
In the case of CCCCCO [1-pentanol], the “GC-EAD activity (antennal response)” value is reported as “active”.
For CC(O)C(C)O (stereo not drawn) [2,3-butanediol], the “GC-EAD activity (antennal response)” value was “active”.
In the case of CCC(C)COC(C)=O (stereo not drawn) [2-methylbutyl acetate], the “GC-EAD activity (antennal response)” value is reported as “active”.
In the case of CCCCCCCC(C)=O [2-nonanone], the “GC-EAD activity (antennal response)” value is reported as “active”.
For OCCc1ccccc1 [2-phenylethanol], the “GC-EAD activity (antennal response)” value was “active”.
For CC(=O)C(C)O (stereo not drawn) [acetoin], the “GC-EAD activity (antennal response)” value was “active”.
In the case of CCCCCCCC(=O)OCC [ethyl octanoate], the “GC-EAD activity (antennal response)” value is reported as “active”.
For CC(=O)OCCC(C)C [isoamyl acetate], the “GC-EAD activity (antennal response)” value was “active”.
With CC(C)CCOC=O [isoamyl formate] the “GC-EAD activity (antennal response)” value was “active”.
With CCCCCCCCC=O [nonanal] the “GC-EAD activity (antennal response)” value was “active”.
In the case of CCCCCOC(C)=O [pentyl acetate], the “GC-EAD activity (antennal response)” value is reported as “active”.

Tested on: SWD
Test: not given
Conditions: 1-octen-3-ol released near ripe raspberries; cited from earlier work
In the case of C=CC(O)CCCCC (stereo not drawn) [1-octen-3-ol, reference compound], the “effect on infestation of ripe raspberries by SWD” value is listed as “significantly reduced infestation”.
